Measurements: US8927598B2, “Treating oncogenic Ras driven cancers” (Duke University, priority 2008, dated 2015)

Experiments:
[1] = system: human pancreatic cell line MiaPaCa-2; test: Tumor growth of MiaPaCa-2 cells injected into SCID-beige mice given L-NAME in drinking water; assay type: in vivo; details: L-NAME 0.5 g/liter in drinking water, vs untreated drinking water
Description: Eight SCID-beige immunocompromised mice. (The Jackson Laboratory, Bar Harbor, Me.). were each injected simultaneously with one million cells of the human pancreatic cell line MiaPaCa-2 (available from the ATCC, identified as ATCC CRL-1420). Then 4 mice were provided with drinking water supplemented with L-NAME at a concentration of 0.5 g/liter and 4 were provided with drinking water that was not supplemented. Measurements were taken at the site of the injection to calculate tumor volume. Results are shown in FIG. 1 which is a graph of Tumor Volume vs. Time in days after injection where the diamonds denote measurements on untreated mice and the triangles denote measurements on L-NAME fed mice.

human eNOS = test: Knockdown of eNOS expression, immunoblot; assay type: cell-based
Description: The siRNA of SEQ ID NO:1 is produced as follows: Complementary oligonucletides obtained from Integrated DNA Technologies (Coralville, USA) and annealed together were cloned into the Hind III and Bgl II sites of pSUPER-RETRO (OligoEngine, Seattle, Wash.). The sense strand of this insert is identified in the Sequence Listing as SEQ ID NO: 4. Transcription of this sequence by RNA polymerase produces an shRNA having the Sequence Listing as SEQ ID NO: 5. This is processed using Dicer complex to remove the hairpin to give the double stranded RNA sequence of SEQ ID NO: 1 which specifically knocks down the expression of human eNOS Exemplary dosage is 100-1600 micrograms based on a clinical trial of the siRNA compound AGN211745.
A test for determining that eNOS expression is reduced is by immunoblot by using commercially available phosphor-S1177 eNOS antibody.

[2] = system: pancreatic cancer cell line; test: Tumor growth in SCID-beige mice of pancreatic cancer cell lines stably infected with siRNA plasmid; assay type: in vivo, human; details: cells expressing the siRNA
Method: Methods for creating stably infected cell lines are set below:
Day 1 • Morning—split a 10 cm plate of confluent 293T/17 cells (ATCC CRL-11268) 1:6 in αMEM supplemented with 10% Fetal Calf Serum (FCS) (no antibiotics) into a 10 cm plate so as to be 40-50% confluent at time of transfection.
Day 2 • Morning—mix in tissue culture hood in microcentrifuge tube: 12 μg pCL-10A1, 3 μg pSUPER-RETRO-PURO plasmid (OligoEngine, Seattle, Wash.) engineered to encode eNOS, RNA, NRas siRNA or HRas siRNA, and serum free media to 200 μl total volume. Tap tube side gently to mix and incubate at room temperature 15-45 minutes. Add dropwise to 293T/17 cells with micropipette and incubate overnight at 37° C.
Day 3 • Morning—repeat transfection protocol from day 2. Once the transfection mix is added to the cells, it must be incubated for at least 8 hours. Evening—remove media and replace with 6 ml of cell specific media of cells to be infected.
Day 4 • Morning—split a confluent 10 cm plate of pancreatic cancer cell line to be infected in cell type specific media so that they will reach 25-35% confluency the following morning.
Day 5 • Morning—aspirate media in a 10 ml syringe, attach 0.45 μm acrodisc filter to the bottom of the syringe. Filter the media into a 15 ml conical tube. […]
Method of testing pancreatic cancer cell line for tumor growth is set forth below: • 1. Expand pancreatic cancer cells stably infected with pSUPER-RETRO-PURO plasmid (OligoEngine) engineered to encode eNOS siRNA, NRas siRNA, or HRas siRNA to a total count of at least 1×10^7 cells/mouse, typically 4-8 15 cm tissue culture dishes at full confluency (number of dishes determined by cell size). • 2. […] Weigh each mouse for baseline reading and track tumor progression over the weeks to months by measuring large and small diameters and extrapolating tumor volume utilizing the equation: Tumor Volume=(small diameter)^2[…](large diameter/2).

human NRas = test: Knockdown of NRas expression, immunoblot; assay type: cell-based
Description: (§1) The siRNA of SEQ ID NO: 2 is produced as follows: Complementary oligonucleotides obtained from Integrated DNA Technologies (Coralville, USA) and annealed together were cloned into the Hind III and Bgl II sites of pSUPER-RETRO (OligoEngine, Seattle, Wash.). The sense strand of this insert is identified in the Sequence Listing as SEQ ID NO: 8. Transcription of this sequence by RNA polymerase produces an shRNA having the sequence identified in the Sequense Listing as SEQ ID NO: 9. This is processed using Dicer complex to remove the hairpin to give the double stranded RNA sequence of SEQ ID NO: 2 which specifically knocks down the expression of human NRas.
A test for determining that NRas expression is reduced is by immunoblot by using commercially available NRas antibody.

human HRas = test: Knockdown of HRas expression, immunoblot; assay type: cell-based
Description: as §1, with “3” for “2”, “6.” for “8.”, “7.” for “9.”, “HRas.” for “NRas.”
A test for determining that HRas expression is reduced is by immunoblot by using commercially available HRas antibody.

COC(=O)[C@@H](N)CCCNC(=N)N[N+](=O)[O-] [L-NAME, N^G-nitro-L-arginine methyl ester]
Tumor growth (tumor volume vs. time in days after injection) [1]: Tumors grew more slowly | Reduction in tumor size at termination of the experiment ([1]; p<0.01): ~3 fold

SEQ ID NO: 1: novel siRNA generated by the applicant that knocks down the expression of human eNOS (AAGAGUUAUAAGAUCCGCUUC; chemistry not given here; listed as Homo sapiens)
Knockdown of expression of human eNOS (human eNOS): efficiently knocks down | Tumor initiation and growth of cancer cell lines in mice [2]: blocks tumor initiation and growth

SEQ ID NO: 2: novel siRNA generated by the applicant that knocks down the expression of human NRas (CAAGAAGAGUACAGUGCCAUG; listed as RNA, chemistry not given here; listed as Homo sapiens)
Knockdown of expression of NRas proteins (human NRas): efficiently knocks down | Tumor initiation and growth of cancer cell lines in mice [2]: inhibits tumor growth

SEQ ID NO: 3: published siRNA (Yang, G., et al., Oncogene 22, 5694-5701 (2003)) that knocks down the expression of human HRas (GGCAAGAGUGCGCUGACCAUC; listed as RNA, chemistry not given here; listed as Homo sapiens)
Knockdown of expression of HRas proteins (human HRas): efficiently knocks down | Tumor initiation and growth of cancer cell lines in mice [2]: inhibits tumor growth
